According to patent US20180258180A1, “COMBINATION THERAPY INVOLVING ANTIBODIES AGAINST CLAUDIN 18.2 FOR TREATMENT OF CANCER” (Ganymed Pharmaceuticals AG, priority 2012, published 2018):

Columns and labels:
[1] = Repeated dose toxicity study in cynomolgus monkeys; format: in vivo; conditions: up to 5 weekly applications of up to 100 mg/kg
Excerpt: (§1) This compartimentalization is lost upon malignant transformation rendering the epitope drugable by IMAB362.

[2] = tested on: CLDN18.2-positive (NUGC-4, KATO III) human target cell lines; assay: IMAB362 ADCC with ZA/IL-2 expanded effector cells on CLDN18.2-positive target cell lines; format: cell-based
Protocol: These effector cell cultures were used in ADCC assays with CLDN18.2-positive (NUGC-4, KATO III) and negative (SK-BR-3) human target cell lines (E:T ratio 40:1). […] ADCC was measured in luciferase assays; cf. FIG. 15a. […] FIG. 15b. Same experiment as described in (a) was performed using NUGC-4 as target cells; cf. FIG. 15c. […] A purity of more than 97.0% Vγ9Vδ2 T cells in lymphocytes was obtained.

CLDN18.1 = CLDN18.1 (Homo sapiens, UniProt P56856); assay: IMAB362 binding to other claudin family members
[3] = tested on: HEK293~CLDN18.2 tumor xenografts; assay: Treatment of advanced HEK293~CLDN18.2 tumor xenografts; format: in vivo, nude mice
Excerpt: Moreover, advanced tumor treatment experiments were initiated up to 9 days after tumor cell inoculation when tumors had reached volumes of about 60-120 mm^3.
(§2) Treatment of 9 to 10 mice per group was initiated when mean tumor volumes reached 88 mm^3 (62-126 mm^3). […] All mice in the groups treated with either PBS or isotype control died within 50-100 days. […] Three of these mice survived the entire observation period (FIG. 20). Importantly, antitumoral efficacy in vivo depends on the presence of the target on the tumor cells.

[4] = tested on: CLS-103~cldn18.2 allograft tumors; assay: Combination of IMAB362 and EOF on CLS-103~cldn18.2 allograft tumors; set-up: species or system NMRI mice; conditions: mouse, in vivo
Excerpt: Tumor size and animal health were monitored semi-weekly. Mice were sacrificed, when tumor reached a volume of 1400 mm^3 or tumors became ulcerous.

[5] = tested on: CLDN18.2-negative HEK293 tumor cells; assay: IMAB362 treatment of CLDN18.2-negative HEK293 tumors; set-up: species or system mice; conditions: mouse, in vivo
Excerpt: as §2

NUGC-4 xenografts = assay: Biodistribution of Dyelight 680-labeled antibodies in NUGC-4 xenografted nude mice; conditions: live imaging
[6] = tested on: CLDN18.2-transfected HEK293 cells; assay: IMAB362 with ZA/IL-2 induced Vγ9Vδ2 T cells on HEK293~CLDN18.2 tumors in NSG mice; format: in vivo; conditions: 200 μg semi-weekly, in the presence of human γδ T cells and ZA (and IL-2)
Protocol: NSG mice lack mature T cells, B cells, natural killer (NK) cells, multiple cytokine signaling pathways, and they have many defects in innate immunity, whereas the niches in the primary and secondary immunological tissues are permissive to colonization by human immune cells.
NSG mice were inoculated subcutaneously with 1×10^7˜CLDN18.2-transfected HEK293 cells. On the same day, mice received 8×10^6 human PBMCs enriched for Vγ9Vδ2 T cells, which were cultured for 14 days in ZA-supplemented medium. […] To maintain human T cells functional, IL-2 was administered semi-weekly and ZA weekly. […] In addition to 9 mice treated as described, two control groups of mice were established.

[7] = tested on: NUGC-4 gastric cancer cells; assay: IMAB362-mediated ADCC on chemotherapy pretreated NUGC-4 cells; format: cell-based, human; conditions: NUGC-4 pretreated with 5-FU+OX, EOF or FLO for 96 hours
Protocol: IMAB362-mediated ADCC was investigated using NUGC-4 gastric cancer cells as target, which were either pretreated with 10 ng/ml 5-FU and 500 ng/ml oxaliplatin (5-FU+OX), 10 ng/ml epirubicin, 500 ng/ml oxaliplatin and 10 ng/ml 5-FU (EOF) or 10 ng/ml 5-FU, 50 ng/ml folinic acid and 500 ng/ml oxaliplatin (FLO) for 96 hours (effector:target ratio 40:1) or untreated. EC50 values were obtained from 7 healthy donors for untreated and EOF, FLO or 5-FU+OX pretreated NUGC-4 cells.

[8] = tested on: NUGC-4 cells expressing CLDN18.2; assay: IMAB362 ADCC with ZA/IL-2 cultivated PBMCs on NUGC-4 cells (luciferase); format: cell-based, human; conditions: PBMCs cultivated 14 days with ZA/IL-2, NUGC-4 targets
Protocol: Specific killing was determined in luciferase assays; cf. FIG. 14a. […] NUGC-4 served as target cells.

[9] = Toxicity and PK/TK profile studies (any toxicity study); format: in vivo, mice and cynomolgus monkeys
Excerpt: as §1

CLDN18.2 = CLDN18.2 (Homo sapiens, UniProt P56856); assay: IMAB362 binding to first extracellular domain of CLDN18.2
[10] = tested on: NUGC-4~CLDN18.2 xenograft tumors; assay: Combination of IMAB362 and EOF regimen on NUGC-4~CLDN18.2 xenografts; set-up: species or system nude mice; conditions: mouse, in vivo
Protocol: Xenograft tumors were inoculated by injection of 1×10^7 NUGC-4˜CLDN18.2 cells subcutaneous into the flank of 10 nude mice (female, six weeks old) per treatment group. Mice were treated on day 3, 10, 17 and 24 with chemotherapeutic agents. IMAB362 treatment was continued weekly.

[11] = tested on: CLDN18.2-positive cancer cell lines; assay: IMAB362 treatment of mice bearing CLDN18.2-positive cancer cell lines; format: in vivo
[12] = tested on: NCI-N87~CLDN18.2 xenograft tumors; assay: Combination of IMAB362 and EOF regimen on NCI-N87~CLDN18.2 xenografts; format: in vivo, nude mice
Protocol: NCI-N87˜CLDN18.2 xenograft tumors were inoculated by injection of 1×10^7 NCI-N87˜CLDN18.2 cells subcutaneous into the flank of 9 mice for each treatment group. […] IMAB362 treatment was continued weekly. Tumor size and animal health was monitored semi-weekly. […] The size of s.c. tumors was measured twice weekly (mean+SEM; *p<0.05). […] Mice were sacrificed, when tumor reached a volume of 1400 mm^3.

[13] = tested on: NUGC-4 gastric cancer cells; assay: NUGC-4 gastric tumor xenograft model; format: in vivo, athymic nude mice
Excerpt: NUGC-4 cells grow aggressively in nude mice.
Tumor sizes were monitored twice weekly.
When 1×10^7 tumor cells are inoculated in mice, the median survival time of untreated mice is not longer than 25 days. […] Mice were stratified size-dependently into treatment groups (FIG. 21).

IMAB362: chimeric IgG1 antibody directed against CLDN18.2, developed by Ganymed Pharmaceuticals AG
tolerability of repeated doses i.v. [1]: well tolerated | ADCC activity with Vγ9Vδ2 T cells isolated with >97% purity ([2]; NUGC-4 targets, day 14): retained and partly improved | ADCC activity against CLDN18.2-positive human tumor cell lines ([2]; ZA/IL-2 cultured effector cells, E:T 40:1): Strong ADCC activity | binding to any other claudin family member including CLDN18.1 (CLDN18.1): does not bind | median survival time ([3]; 200 μg twice per week for 6 weeks, start at mean tumor volume 88 mm^3, versus 25 days): 47 days | mice surviving the entire observation period ([3]; 9 to 10 mice per group): Three | survival ([3]; advanced tumors): survival benefit | tumor growth inhibition compared to saline control group [4]: no significant tumor growth inhibition | antitumoral effects [5]: No antitumoral effects | retention of labeled antibody signal 120 hours after injection (NUGC-4 xenografts): detectable in comparable intensity | outgrowth of CLDN18.2-positive tumors [6]: significantly inhibited and nearly abrogated | maximal lysis in IMAB362-mediated ADCC, pretreated versus untreated target cells [7]: higher maximal lysis | EC50 of IMAB362-mediated ADCC on pretreated cells relative to untreated cells ([7]; E:T 40:1, 7 donors): one third | IMAB362-dependent ADCC activity [8]: Strong | gastric toxicity ([9]; any toxicity study): no gastric toxicity | adverse effects on male or female reproductive organs ([9]; in vivo): No adverse effects | binding to tissues lacking the target ([9]; in vivo): does not bind | immune activation and cytokine release ([9]; in vivo): does not induce | systemic or local toxicity ([9]; repeated doses i.v., mice and cynomolgus monkeys): No signs of systemic or local toxicity | recognition of the first extracellular domain (ECD1) of CLDN18.2 (CLDN18.2): high affinity and specificity | tumor growth compared to saline treated control group [10]: inhibited significantly the tumor growth | mice showing regression of their tumor [11]: up to 40% | survival [11]: survival benefit | tumor growth compared to control mice ([12]; IMAB362 800 μg weekly, EOF i.p. day 4, 11, 18, 25): highly significant suppressed tumor growth | median survival ([12]; saline control 59 days): 76 days | tumor growth compared to controls ([13]; 200 μg twice weekly, starting 6 days after inoculation, p<0.05): significant inhibited | median survival time ([13]; non-significantly increased, versus 25 days): 31 days | tumor volumes at day 21 after tumor inoculation compared to control mice ([13]; p<0.05): significant smaller | tumor growth rate ([13]; treatment initiated at mean tumor size about 109 mm^3): significantly reduce tumor growth rate
